Read-outs that look alike come from different tables or passages of the source.
What was measured:
[1] = system: Klebsiella pneumoniae (KPN) isolates; test: MIC of compounds alone and combined with antibacterials, broth microdilution (CLSI); type: cell-based; details: Klebsiella pneumoniae
Procedure, shortened: (§1)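 Log-phase isolates were inoculated at a final 5.10^5 CFU/mL in cation-adjusted Mueller-Hinton broth and incubated 16-20 h at 35° C in ambient air. MIC was the lowest concentration preventing visible growth; for combinations, the antibacterial MIC was read at each compound concentration.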

[2] = system: Escherichia coli (ECO) isolates; test: as above; type: cell-based; details: Escherichia coli
Procedure, shortened: as §1

`C=CC1=C(C(=O)O)N2C(=O)[C@@H](NC(=O)/C(=N\O)c3csc(N)n3)[C@H]2SC1` [CDR, Cefdinir] was tested, and the MIC ([1]; BAA1898, strain KPN BAA-1898, genotype TEM-1, SHV-11, SHV-12, KPC-2) was > 256 µg/mL, the MIC ([1]; strain KPN 6299, genotype TEM-1, SHV-11, OXA-163, read-out: MIC) was 256 µg/mL and the MIC ([1]; strain KPN 110376, genotype TEM-1, SHV-1, CTX-M-15, OXA-1, OXA-48) was > 256 µg/mL. For the same compound, the MIC ([1]; strain KPN 131119, genotype TEM-1, SHV-11, CTX-M-15, OXA-1, OXA-48) was > 256 µg/mL, the MIC ([1]; strain KPN 140513, genotype TEM-1, SHV-11, CTX-M-15, KPC-3) was > 256 µg/mL and the MIC ([1]; strain KPN 160143, genotype TEM-1, SHV-1, CTX-M-15, KPC-2, OXA-1) was > 256 µg/mL. For the same compound, the MIC ([1]; strain KPN 190128, genotype TEM-1, SHV-32, CTX-M-15, OXA-1) was > 256 µg/mL, the MIC ([1]; strain KPN 190270, genotype TEM-1, SHV-76, CTX-M-15, OXA-1) was > 256 µg/mL and the MIC ([1]; strain KPN 190425, genotype TEM-1, SHV-1, CTX-M-15, OXA-1) was > 256 µg/mL. For the same compound, the MIC ([1]; strain KPN 190551, genotype TEM-1, SHV-1, CTX-M-15, OXA-1) was > 256 µg/mL, the MIC ([1]; strain KPN 200047, genotype TEM-1, SHV-32, CTX-M-15, OXA-1) was > 256 µg/mL and the MIC ([1]; strain KPN 200327, genotype TEM-1, SHV-1, CTX-M-15, OXA-1) was > 256 µg/mL. The MIC ([1]; strain KPN 260251, genotype TEM-1, SHV-11, SHV-12, CTX-M-15, KPC-2) was > 256 µg/mL, the MIC ([1]; strain KPN 260252, genotype TEM-1, SHV-11, KPC-3) was > 256 µg/mL and the MIC ([1]; strain KPN 260376, genotype SHV-1, SHV-49, OXA-1) was > 256 µg/mL. The MIC ([1]; strain KPN 270077, genotype TEM-1, SHV-1, CTX-M-15) was > 256 µg/mL, the MIC ([1]; strain KPN 700603, genotype SHV-18, OXA-2, read-out: MIC) was 4 µg/mL and the MIC ([1]; strain KPN ARA, genotype TEM-1, SHV-11, CTX-M-15, OXA-1, OXA-48) was > 256 µg/mL. The MIC ([1]; strain KPN LIB, genotype SHV-11, OXA-48) was > 256 µg/mL, the MIC ([1]; strain KPN UFR22_O, genotype TEM-1, SHV-1, OXA-48) was > 256 µg/mL and the MIC ([1]; strain KPN UFR23, genotype TEM-1, SHV-1, OXA-48) was > 256 µg/mL. For the same compound, the MIC ([1]; strain KPN UFR24, genotype TEM-1, SHV-2, SHV-11, OXA-1, OXA-48, OXA-47) was > 256 µg/mL, the MIC ([1]; strain KPN UFR25, genotype TEM-1, SHV-11, CTX-M-15, OXA-162) was > 256 µg/mL and the MIC ([1]; strain KPN UFR27, genotype TEM-1, SHV-28, CTX-M-15, OXA-204) was > 256 µg/mL. The MIC ([1]; strain KPN UFR28, genotype TEM-1, SHV-1, CTX-M-15, OXA-1, OXA-232) was > 256 µg/mL, the MIC ([1]; strain KPN UFR65, genotype TEM-1, SHV-11, KPC-2) was > 256 µg/mL and the MIC ([1]; strain KPN UFR66, genotype TEM-1, SHV-11, CTX-M-15, KPC-2) was > 256 µg/mL. For the same compound, the MIC ([1]; strain KPN UFR67, genotype TEM-1, SHV-11, KPC-3) was > 256 µg/mL, the MIC ([1]; strain KPN UFR68, genotype TEM-1, SHV-11, CTX-M-15, KPC-3) was > 256 µg/mL and the MIC ([1]; strain KPN UFR76, genotype TEM-155, SHV-11, ACT-1, OXA-2) was > 256 µg/mL. The MIC ([1]; strain KPN UFR77, genotype CMY-2, read-out: MIC) was 64 µg/mL, the MIC ([1]; strain KPN UFR78, genotype TEM-1, SHV-1, CTX-M-15, CMY-2, OXA-1, OXA-48) was > 256 µg/mL and the MIC ([1]; strain KPN UFR79, genotype DHA-1, OXA-1, read-out: MIC) was 256 µg/mL. The MIC ([1]; strain KPN UFR80, genotype SHV-11, DHA-1, OXA-1, read-out: MIC) was 1 µg/mL, the MIC ([1]; strain KPN UFR81, genotype TEM-1, SHV-1, DHA-1, OXA-48) was > 256 µg/mL and the MIC ([1]; strain KPN UFR215, genotype SHV-27, CTX-M-15) was > 256 µg/mL. For the same compound, the MIC ([1]; strain KPN UFR216, genotype SHV-28, CTX-M-15) was > 256 µg/mL, the MIC ([1]; strain KPN UFR217, genotype TEM-1, SHV-1, CTX-M-15) was > 256 µg/mL and the MIC ([1]; strain KPN UFR219, genotype SHV-12, CTX-M-15) was > 256 µg/mL. For the same compound, the MIC ([1]; strain KPN UFR220, genotype TEM-1, SHV-12, DHA-1) was > 256 µg/mL, the MIC ([1]; strain KPN UFR221, genotype TEM-1, SHV-11, CTX-M-14, DHA-1, read-out: MIC) was 128 µg/mL and the MIC ([1]; strain KPN UFR222, genotype DHA-2) was > 256 µg/mL. For the same compound, the MIC ([1]; strain KPN UFR227O, genotype TEM-x, SHV-x, CTX-M-x) was > 256 µg/mL, the MIC ([2]; strain ECO 4133, genotype TEM-30, OXA-1, read-out: MIC) was 0.5 µg/mL and the MIC ([2]; strain ECO 5302, genotype TEM-1, OXA-1, read-out: MIC) was 1 µg/mL. The MIC ([2]; strain ECO 131119, genotype TEM-1, OXA-48, read-out: MIC) was 256 µg/mL, the MIC ([2]; strain ECO 180070, genotype TEM-1, CTX-M-15) was > 256 µg/mL and the MIC ([2]; strain ECO 190314, genotype CTX-M-1) was > 256 µg/mL. The MIC ([2]; strain ECO 190317, genotype TEM-1, SHV-12, CTX-M-15, OXA-1) was > 256 µg/mL, the MIC ([2]; strain ECO 190457, genotype CTX-M-15, OXA-1) was > 256 µg/mL and the MIC ([2]; strain ECO 190549, genotype CTX-M-1, read-out: MIC) was 256 µg/mL. For the same compound, the MIC ([2]; strain ECO 200159, genotype TEM-1, CTX-M-14, read-out: MIC) was 256 µg/mL, the MIC ([2]; strain ECO 200259, genotype CTX-M-14, read-out: MIC) was 256 µg/mL and the MIC ([2]; strain ECO 200344, genotype CTX-M-1) was > 256 µg/mL. The MIC ([2]; strain ECO 260096, genotype CTX-M-132) was > 256 µg/mL, the MIC ([2]; strain ECO 260304, genotype CTX-M-15, read-out: MIC) was 256 µg/mL and the MIC ([2]; strain ECO 260508, genotype TEM-1, CTX-M-15, OXA-1) was > 256 µg/mL. For the same compound, the MIC ([2]; strain ECO RGN238, genotype OXA-1, read-out: MIC) was 0.5 µg/mL, the MIC ([2]; strain ECO UFR15, genotype TEM-1, OXA-48) was > 256 µg/mL and the MIC ([2]; strain ECO UFR16, genotype TEM-1, CTX-M-15, OXA-1, OXA-48) was > 256 µg/mL. For the same compound, the MIC ([2]; strain ECO UFR17, genotype TEM-1, CTX-M-15, CMY-2, OXA-1, OXA-181) was > 256 µg/mL, the MIC ([2]; strain ECO UFR18, genotype CTX-M-15, OXA-204) was > 256 µg/mL and the MIC ([2]; strain ECO UFR19, genotype CTX-M-15, CMY-2, OXA-1, OXA-204) was > 256 µg/mL. For the same compound, the MIC ([2]; strain ECO UFR20, genotype SHV-1, CTX-M-15, OXA-1, OXA-232) was > 256 µg/mL, the MIC ([2]; strain ECO UFR61O, genotype TEM-1, KPC-2) was > 256 µg/mL and the MIC ([2]; strain ECO UFR62, genotype TEM-1, CTX-M-9, KPC-2) was > 256 µg/mL. The MIC ([2]; strain ECO UFR74, genotype SHV-1, DHA-1) was > 256 µg/mL, the MIC ([2]; strain ECO UFR86, genotype ompC-, ompF-, read-out: MIC) was 2 µg/mL and the MIC ([2]; strain ECO UFR174, genotype TEM-1, KPC-2, OXA-1) was > 256 µg/mL. The MIC ([2]; strain ECO UFR175, genotype TEM-1, KPC-2, OXA-9) was > 256 µg/mL, the MIC ([2]; strain ECO UFR176, genotype KPC-3, OXA-9*) was > 256 µg/mL and the MIC ([2]; strain ECO UFR184, genotype CTX-M-15, CMY-4, OXA-1, OXA-204) was > 256 µg/mL. The MIC ([2]; strain ECO UFR185, genotype OXA-48) was > 256 µg/mL, the MIC ([2]; strain ECO UFR186, genotype TEM-1, CTX-M-14, OXA-48) was > 256 µg/mL and the MIC ([2]; strain ECO UFR187, genotype CTX-M-15, OXA-48) was > 256 µg/mL. The MIC ([2]; strain ECO UFR189, genotype TEM-1, CTX-M-15, OXA-48) was > 256 µg/mL, the MIC ([2]; strain ECO UFR190, genotype CTX-M-24, OXA-48) was > 256 µg/mL and the MIC ([2]; strain ECO UFR191, genotype TEM-1, CTX-M-24, OXA-48) was > 256 µg/mL. For the same compound, the MIC ([2]; strain ECO UFR207, genotype CTX-M-15) was > 256 µg/mL, the MIC ([2]; strain ECO UFR208, genotype SHV-12) was > 256 µg/mL and the MIC ([2]; strain ECO UFR209, genotype TEM-1, CTX-M-15) was > 256 µg/mL. For the same compound, the MIC ([2]; strain ECO UFR210, genotype SHV-12) was > 256 µg/mL, the MIC ([2]; strain ECO UFR211, genotype TEM-24, read-out: MIC) was 32 µg/mL and the MIC ([2]; strain ECO UFR212, genotype CMY-2) was > 256 µg/mL. For the same compound, the MIC ([2]; strain ECO UFR218, genotype TEM-1, SHV-1, CTX-M-15) was > 256 µg/mL.
